According to patent publication US20060235076A1, “Medicinal composition for treating infection with drug-resistant staphylococcus aureus” (priority 2003, published 2006):
≈ marks a conversion by molar mass, not a printed value. Where two headings read alike, the source gives them in different places.

Assays:
[1] = test system: MRSA COL and MRSA Strain No. 5; assay: Potentiating effect of various gallates for antibacterial activity of oxacillin (MIC by broth microdilution method and FIC); assay type: cell-based, Staphylococcus aureus; settings: for FIC value: combination with oxacillin
Protocol: According to the broth microdilution method defined by Japan Society of Chemotherapy, MIC was determined. CAMHA was prepared by adding 50 mg/l of Ca-ion, 25 mg/l of Mg-ion, and 2% of NaCl to MHB (Mueller-Hinton Broth), and it was used as a medium for use in the measurement of sensitivity. In 96-well microplates 100 μl of the medium for use in the measurement of sensitivity containing drugs was dispensed. The bacterial liquid was incubated at 37° C. overnight, diluted with saline and added to the plate so that the final concentration of the bacteria was 5×10^5 CFU/well. […] FIC (fractional inhibitory concentration) was calculated from the result and the potency of the effect of the combination use was evaluated.

[2] = test system: MRSA and MSSA; assay: Antibacterial activity of gallic acid, various gallates and multivalent phenol derivatives alone (agar plate dilution method, MIC); assay type: cell-based, Staphylococcus aureus; settings: Staphylococcus aureus; for MIC: read-out: MIC alone
Protocol: According to the agar plate dilution method defined by Japan Society of Chemotherapy, MIC (Minimum inhibitory concentration) was determined. CAMHA was prepared by adding 50 mg/l of Ca-ion, 25 mg/l of Mg-ion, and 2% of NaCl to Mueller-Hinton II Agar (MHA), and it was used as a medium for use in the measurement of sensitivity. The bacterial liquid was incubated at 37° C. overnight and diluted to 10^6 CFU/ml with saline.
MIC for gallic acid, various gallates and multivalent phenol derivatives alone with MRSA and MSSA were determined as described in experiment 2.

SMILES	FIC value ([1]; MRSA COL)	FIC value ([1]; MRSA Strain No. 5)	MIC ([2]; COL)	MIC ([2]; MRSA #1)	MIC ([2]; MRSA #2)	MIC ([2]; MRSA #3)	MIC ([2]; MRSA #4)	MIC ([2]; MRSA #5)	MIC ([2]; MRSA #6)	MIC ([2]; MRSA #7)	MIC ([2]; MRSA #8)	MIC ([2]; MRSA #9)	MIC ([2]; MRSA #10)	MIC ([2]; MRSA #12)	MIC ([2]; MRSA #16)	MIC ([2]; MRSA #17)	MIC ([2]; MRSA #18)	MIC ([2]; MRSA #20)	MIC ([2]; MRSA #21)	MIC ([2]; MRSA #22)	other results
CCCCOC(=O)c1cc(O)c(O)c(O)c1 [Butyl gallate, n-butyl gallate]	0.129	0.254	125 µg/mL (≈ 553 µM)	125 µg/mL (≈ 553 µM)	125 µg/mL (≈ 553 µM)	125 µg/mL (≈ 553 µM)	125 µg/mL (≈ 553 µM)	125 µg/mL (≈ 553 µM)	62.5 µg/mL (≈ 276 µM)	125 µg/mL (≈ 553 µM)	125 µg/mL (≈ 553 µM)	62.5 µg/mL (≈ 276 µM)	62.5 µg/mL (≈ 276 µM)	125 µg/mL (≈ 553 µM)	125 µg/mL (≈ 553 µM)	125 µg/mL (≈ 553 µM)	125 µg/mL (≈ 553 µM)	125 µg/mL (≈ 553 µM)	125 µg/mL (≈ 553 µM)	125 µg/mL (≈ 553 µM)	effect of the combination use with oxacillin by FIC values ([1]; COL Strain and Strain No. 5): most potent effect of the combination use; MIC ([2]; ATCC 6538 / MRSA / MSSA, ATCC6538): 125 µg/mL (≈ 553 µM); MIC ([2]; MRSA #24): 125 µg/mL (≈ 553 µM); MIC ([2]; MSSA #1003): 125 µg/mL (≈ 553 µM); MIC ([2]; MSSA #1010): 125 µg/mL (≈ 553 µM); MIC ([2]; MSSA #1020): 125 µg/mL (≈ 553 µM); MIC ([2]; MSSA #1023): 125 µg/mL (≈ 553 µM); MIC ([2]; MSSA #1029): 62.5 µg/mL (≈ 276 µM); MIC ([2]; MSSA #1032): 125 µg/mL (≈ 553 µM); MIC50 ([2]; compound alone, over all strains of Table 3-1, read-out: MIC50): 125 µg/mL (≈ 553 µM)
CCCCCCCCCCOC(=O)c1cc(O)c(O)c(O)c1 [Decyl gallate, n-decyl gallate]	0.258	0.508	15.7 µg/mL (≈ 50.6 µM)	15.7 µg/mL (≈ 50.6 µM)	15.7 µg/mL (≈ 50.6 µM)	15.7 µg/mL (≈ 50.6 µM)	15.7 µg/mL (≈ 50.6 µM)	15.7 µg/mL (≈ 50.6 µM)	15.7 µg/mL (≈ 50.6 µM)	15.7 µg/mL (≈ 50.6 µM)	15.7 µg/mL (≈ 50.6 µM)	15.7 µg/mL (≈ 50.6 µM)	15.7 µg/mL (≈ 50.6 µM)	15.7 µg/mL (≈ 50.6 µM)	15.7 µg/mL (≈ 50.6 µM)	15.7 µg/mL (≈ 50.6 µM)	15.7 µg/mL (≈ 50.6 µM)	15.7 µg/mL (≈ 50.6 µM)	31.3 µg/mL (≈ 101 µM)	31.3 µg/mL (≈ 101 µM)	antibacterial activity when used alone ([1]; COL Strain and Strain No. 5): most potent; MIC50 [2]: 15.7 µg/mL (≈ 50.6 µM); MIC ([2]; ATCC 6538 / MRSA / MSSA): 15.7 µg/mL (≈ 50.6 µM); MIC ([2]; MRSA #24): 31.3 µg/mL (≈ 101 µM); MIC ([2]; MRSA and MSSR): 15.7 µg/mL (≈ 50.6 µM); MIC ([2]; MSSA #1003): 15.7 µg/mL (≈ 50.6 µM); MIC ([2]; MSSA #1010): 15.7 µg/mL (≈ 50.6 µM); MIC ([2]; MSSA #1020): 15.7 µg/mL (≈ 50.6 µM); MIC ([2]; MSSA #1023): 15.7 µg/mL (≈ 50.6 µM); MIC ([2]; MSSA #1029): 15.7 µg/mL (≈ 50.6 µM); MIC ([2]; MSSA #1032): 15.7 µg/mL (≈ 50.6 µM)
CCOC(=O)c1cc(O)c(O)c(O)c1 [Ethyl gallate, ethyl gallate]	0.125	0.156	125 µg/mL (≈ 631 µM)	125 µg/mL (≈ 631 µM)	62.5 µg/mL (≈ 315 µM)	125 µg/mL (≈ 631 µM)	62.5 µg/mL (≈ 315 µM)	125 µg/mL (≈ 631 µM)	62.5 µg/mL (≈ 315 µM)	125 µg/mL (≈ 631 µM)	125 µg/mL (≈ 631 µM)	62.5 µg/mL (≈ 315 µM)	62.5 µg/mL (≈ 315 µM)	125 µg/mL (≈ 631 µM)	125 µg/mL (≈ 631 µM)	62.5 µg/mL (≈ 315 µM)	62.5 µg/mL (≈ 315 µM)	125 µg/mL (≈ 631 µM)	125 µg/mL (≈ 631 µM)	125 µg/mL (≈ 631 µM)	MIC50 [2]: 125 µg/mL (≈ 631 µM); MIC ([2]; ATCC 6538 / MRSA / MSSA): 125 µg/mL (≈ 631 µM); MIC ([2]; MRSA #24): 125 µg/mL (≈ 631 µM); MIC ([2]; MSSA #1003): 125 µg/mL (≈ 631 µM); MIC ([2]; MSSA #1010): 125 µg/mL (≈ 631 µM); MIC ([2]; MSSA #1020): 125 µg/mL (≈ 631 µM); MIC ([2]; MSSA #1023): 62.5 µg/mL (≈ 315 µM); MIC ([2]; MSSA #1029): 62.5 µg/mL (≈ 315 µM); MIC ([2]; MSSA #1032): 125 µg/mL (≈ 631 µM)
